Laboratory results published in patent US20090264650A1, “Prophylactic/Therapeutic Agent for Diabetes” (priority 2005, published 2009).

target: T1, 11βHSD1 (Homo sapiens, UniProt P28845); assay: Determination of 11βHSD1 inhibitory activity (microsome fraction, cortisone to cortisole, competitive ELISA); type: biochemical; conditions: microsome fraction of Reference Example 2a; 500 nM cortisone, 400 μM NADPH substrate solution; room temperature 60 min
T1 construct: made in house; host or cells: Sf-21 insect cells infected with recombinant baculovirus BAC-HHSD1 (pFASTBAC1-derived pFB-hHSD1); microsome fraction
T1 sequence (P28845 whole entry): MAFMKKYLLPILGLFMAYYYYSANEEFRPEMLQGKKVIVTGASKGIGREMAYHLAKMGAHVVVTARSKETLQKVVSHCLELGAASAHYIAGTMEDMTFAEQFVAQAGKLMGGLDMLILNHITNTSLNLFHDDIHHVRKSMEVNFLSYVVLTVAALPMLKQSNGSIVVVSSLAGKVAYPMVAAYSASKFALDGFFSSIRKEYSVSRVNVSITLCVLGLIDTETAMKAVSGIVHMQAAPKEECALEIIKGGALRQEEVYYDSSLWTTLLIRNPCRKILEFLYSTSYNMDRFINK
Method: The enzyme reaction was performed in a polypropylene 96-well plate (Corning). The microsome fraction obtained in Reference Example 2a was diluted with a buffer (30 mM Tris-HCl, 1 mM EDTA, 0.1% BSA, pH 7.2) to a concentration of 100 μg/ml. A solution (2.5 μl) of the test compound in dimethyl sulfoxide was added to the obtained diluted solution (22.5 μl) and the mixture was incubated at room temperature for 5 min. A substrate solution (500 nM cortisone, 400 μM NADPH) (25 μl) was added to the obtained suspension, allowed to react at room temperature for 60 min and the reaction was quenched by the addition of 2 mM 18-β-glycyrrhetinic acid (Sigma Ltd.) solution (5 μl). The produced cortisole was quantified by the following competitive ELISA.
Anti-mouse IgG antibody (Chemicon) was suspended in 100 mM sodium phosphate buffer (pH 9.0) to a concentration of 5 μg/ml. The obtained suspension (100 μl) was added to a 96-well black plate (Maxisorp, Nunc), and incubated overnight at 4° C. to immobilize a first antibody. The plate was washed with PBS containing 0.05% Tween20 (Bio-Rad), 30% block ace (Yukijirushi) ([…]) diluted with PBS was added. After blocking at room temperature for 1 hr or more, the plate was washed with PBS containing 0.05% Tween20. Anti-cortisole antibody (assay design) (100 μl) diluted 4-fold with a buffer (30 mM Tris-HCl, 1 mM EDTA, pH 7.2) was added to the plate, and the plate was incubated at room temperature for 90 min. The plate was washed 4 times with PBS containing 0.05% Tween20, the enzyme reaction mixture (25 μl) and alkaline phosphatase conjugated cortisole (assay design) (25 μl) were added, and the plate was incubated at room temperature for 120 min. The plate was washed 4 times with PBS containing 0.05% Tween20, a luminescence substrate for alkaline phosphatase, Immun star (Enhancer plus, Bio-Rad) (50 μl) was added. The plate was incubated at room temperature for 10 min and the level of luminescence was measured by Arvo malfi label counter (Wallac). The concentration (IC50 value) of the test compound necessary for inhibiting the 11βHSD1 activity by 50% was calculated by PRISM2.01 (Graphpad Software).

IC50	SMILES
150 nM	CC1(O)CCC(N2CCC(Cc3ccc(-c4cccc(CO)c4)cc3Cl)C2=O)CC1 (stereo not shown) [Example 654A, 3-{[3-chloro-3′-(hydroxymethyl)biphenyl-4-yl]methyl}-1-(4-hydroxy-4-methylcyclohexyl)pyrrolidin-2-one]
26 nM	CC1(O)CCC(N2CCC(Cc3c(Cl)cccc3Cl)C2=O)CC1 (single isomer, unassigned) [Example 38A, 3-(2,6-dichlorobenzyl)-1-(4-hydroxy-4-methylcyclohexyl)pyrrolidin-2-one]
29 nM	CC1(O)CCC(N2CCC(Cc3ccc(Cl)cc3Cl)C2=O)CC1 (single isomer, unassigned) [Example 413A, 3-(2,4-dichlorobenzyl)-1-(4-hydroxy-4-methylcyclohexyl)pyrrolidin-2-one]
430 nM	CC1(O)CCC(N2CCC(Cc3ccc(Cl)cc3Cl)C2=O)CC1 (single isomer, unassigned) [Example 412A, 3-(2,4-dichlorobenzyl)-1-(4-hydroxy-4-methylcyclohexyl)pyrrolidin-2-one]
53 nM	Cc1ccccc1CN1C(=O)N(Cc2c(Cl)cccc2Cl)CC1(C)O (stereo not shown) [Example 32B, 1-(2,6-dichlorobenzyl)-4-hydroxy-4-methyl-3-(2-methylbenzyl)imidazolidin-2-one]
85 nM	CN(Cc1c(Cl)cccc1Cl)C1CCN(C2CCCCC2)C1=O (stereo not shown) [Example 94A, 1-cyclohexyl-3-[N-(2,6-dichlorobenzyl)N-methylamino]pyrrolidin-2-one]
37 nM	CS(=O)(=O)Nc1cccc(-c2ccc(CC3CCN(C4C5CC6CC4CC(O)(C6)C5)C3=O)c(Cl)c2)c1 (stereo not shown) [Example 470A, N-(3′-chloro-4′-{[1-(5-hydroxy-2-adamantyl)-2-oxopyrrolidin-3-yl]methyl}biphenyl-3-yl)methanesulfonamide]
46 nM	CC1(O)CCC(N2CCC(Cc3ccc(OCc4nc(-c5ccc(F)cc5)no4)cc3Cl)C2=O)CC1 (stereo not shown) [Example 619A, 3-(2-chloro-4-{[3-(4-fluorophenyl)-1,2,4-oxadiazol-5-yl]methoxy}benzyl)-1-(4-hydroxy-4-methylcyclohexyl)pyrrolidin-2-one]
7.9 nM	O=C1C(Cc2c(Cl)cccc2Cl)CCN1C1CCCCC1 (stereo not shown) [Example 9A, 1-cyclohexyl-3-(2,6-dichlorobenzyl)pyrrolidin-2-one]
98 nM	CC1(O)CCC(N2CCC(Cc3ccc(OCC(=O)NCc4ccc(C(F)(F)F)cc4)cc3Cl)C2=O)CC1 (single isomer, unassigned) [Example 603A, 2-(3-chloro-4-{[1-(4-hydroxy-4-methylcyclohexyl)-2-oxopyrrolidin-3-yl]methyl}phenoxy)-N-[4-(trifluoromethyl)benzyl]acetamide]
130 nM	Cc1ccccc1CN1CCCN(Cc2c(Cl)cccc2Cl)C1=O [Example 2D, 1-(2,6-dichlorobenzyl)-3-(2-methylbenzyl)tetrahydropyrimidin-2(1H)-one]
26 nM	CC1(O)CCC(N2CCC(Cc3ccc(OCC(=O)NCc4ccc(C(F)(F)F)cc4)cc3Cl)C2=O)CC1 (single isomer, unassigned) [Example 602A, 2-(3-chloro-4-{[1-(4-hydroxy-4-methylcyclohexyl)-2-oxopyrrolidin-3-yl]methyl}phenoxy)-N-[4-(trifluoromethyl)benzyl]acetamide]
110 nM	Cc1ccccc1CN1CCCC(Cc2c(Cl)cccc2Cl)C1=O (stereo not shown) [Example 5C, 3-(2,6-dichlorobenzyl)-1-(2-methylbenzyl)piperidin-2-one]
56 nM	COc1ccccc1CC1CCN(C2CCc3ccccc32)C1=O (single isomer, unassigned) [Example 66A, 1-(2,3-dihydro-1H-inden-1-yl)-3-(2-methoxybenzyl)pyrrolidin-2-one]
9.9 nM	O=C1N(Cc2ccc(C(F)(F)F)cc2)CCN1c1ccc(CC2CCN(C3C4CC5CC3CC(O)(C5)C4)C2=O)c(Cl)c1 (stereo not shown) [Example 510A, 1-(3-chloro-4-{[1-(5-hydroxy-2-adamantyl)-2-oxopyrrolidin-3-yl]methyl}phenyl)-3-[4-(trifluoromethyl)benzyl]imidazolidin-2-one]
19 nM	O=C(Nc1ccc(CO)cc1)Nc1ccc(CC2CCN(C3C4CC5CC3CC(O)(C5)C4)C2=O)c(Cl)c1 (stereo not shown) [Example 468A, N-(3-chloro-4-{[1-(5-hydroxy-2-adamantyl)-2-oxopyrrolidin-3-yl]methyl}phenyl)-N′-[4-(hydroxymethyl)phenyl]urea]
